Source: PubChem BioAssay AID1963853 (Molecular Pharmacology Branch, DTP, NCI, 2024)
Values joined by “and” are separate entries in the source; they are usually repeats but may differ in a detail not shown here. Identical values can stand only once.

Tested on: 266295-075-R-J1-PDC spheroid viability
Assay: Anticancer human tumor 266295-075-R-J1-PDC patient-derived head and neck squamous carcinoma cell line growth inhibition [POLQ]
Settings: spheroids with HUVEC and MSC; for viability, T/C: stronger effect = lower value; for IC50: curve of compound
Method: Multicellular complex tumor spheroid response to Polymerase (POL) inhibitors (novobiocin, ART-558, RP6685) in combination with a variety of drugs and investigational agents in selected tumor cell lines
The POL inhibitors (novobiocin, ART-558, and RP6685) were evaluated both individually and in combination with standard of care and investigational anticancer small molecules within a complex spheroid model of solid tumors. . Complex spheroids include a stromal component modeled by human endothelial cells (HUVEC) and fibroblasts modeled by human mesenchymal stem cells (MSCs). The concentration ranges selected for each drug and investigational agent were based upon clinically achievable concentrations if the clinical Cmax of the agent was known.
Compounds. The drugs and investigational agents: novobiocin (NSC847541), ART-558 (NSC835418), RP-6685 (NSC848927), peposertib (NSC802822), ceralasertib (NSC780249), elimusertib (NSC800525), camonsertib (NSC841442), AZD-1390 (NSC803789), olaparib (NSC753686), talazoparib (NSC767125), rucaparib (NSC756644), sotorasib (NSC818433), MRTX-1133 (NSC836407), SN-38 (NSC673596), topotecan (NSC609699), epotoside (NSC141540), doxorubicin (NSC123127), gemcitabine (NSC613327), 5-fluorouracil (NSC19893), paclitaxel (NSC125973), vemurafenib (NSC761431), MSA-2 (NSC828583), SN-011 (NSC837082), adavosertib (NSC754352), prexasertib (NSC758257), carboplatin (NSC241240) and oxaliplatin (NSC266046), were obtained from the National Cancer Institute (NCI) Developmental Therapeutics Program Chemical Repository (21). The FDA-approved anticancer drug set is available from the Developmental Therapeutics Program at https://dtp.cancer.gov/organization/dscb/obtaining/. […] The stock solutions were prepared in dimethyl sulfoxide (DMSO, Sigma-Aldrich, St. Louis, MO, cat. D2650), except for the platinum compounds which were prepared in saline (Quality Biological, Gaithersburg, MD, cat. 114-055-101), at 800-fold the tested concentration and stored at -70 degrees C prior to their use. All drugs and investigational agents were tested over a range starting from a high concentration at or near the clinical Cmax and decreasing in half-log increments. If the clinical Cmax for an agent had not been determined, the highest concentration tested was 10 microM, except for SN-38, which was tested at a high concentration of 1 microM.
Cell Culture. All cells were maintained in an incubator at 37 degrees C and 5% CO2 with 95% humidity. The PDC lines were cultured according to standard operating procedures established by the NCI PDMR (https://pdmr.cancer.gov). Table 3 of the manuscript, lists the cell lines along with the number of the three cell types plated to form the mct-spheroids and media for tumor cell growth. After thawing, all PDC lines, except 997537-175-T-J1-PDC and 415267-285-R-J2-PDC, were cultured in Matrigel-coated flasks prepared with a working solution of 1X Ham's F-12 nutrient mix, without supplementation (Thermo Fisher Scientific, cat. 11765054), 100 U/mL penicillin-streptomycin (Thermo Fisher Scientific, cat. 15140122), and 2.5% Matrigel (Corning Inc., Corning, NY, cat. 354248) for the first three passages. The two PDC lines 997537-175-T-J1-PDC and 415267-285-R-J2-PDC were cultured on uncoated flasks. The 857933-349-R-J2-PDC line was cultured in 6C/Colon 1B media containing advanced DMEM/F-12 (Thermo Fisher Scientific, cat. 12634028), 10 mM HEPES (Thermo Fisher Scientific, cat. 15630080), 1X GlutaMAX supplement (Thermo Fisher Scientific, cat. 35050061), 0.1 mg/mL primocin (InvivoGen, San Diego, CA, cat. ant-pm-2), 10% defined fetal bovine serum, heat inactivated (HyClone Laboratories Inc., Logan, UT, cat. SH30070.03HI), 50% L-WRN conditioned media (ATCC, cat. CRL-3276), 1.25 mM N-Acetyl-L-cysteine (Sigma-Aldrich, cat. A9165), 10 mM nicotinamide (Sigma-Aldrich, cat. N0636), 1X B-27 supplement (Thermo Fisher Scientific, cat. 17504044), 1X N-2 supplement (Thermo Fisher Scientific, cat. […]
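Note: spheroids exposed to compounds for seven days before readout.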

Row | Structure (SMILES) | viability, T/C (compound 0.000316 µM) | viability, T/C (compound 0.001 µM) | viability, T/C (compound 0.00316 µM) | viability, T/C (compound 0.01 µM) | viability, T/C (compound 0.0316 µM) | viability, T/C (compound 0.1 µM) | IC50 | viability, T/C (compound 0.316 µM) | viability, T/C (compound 1 µM) | viability, T/C (compound 3.16 µM) | viability, T/C (compound 10 µM)
1 | Cn1ncnc1[C@H]1c2n[nH]c(=O)c3cc(F)cc(c23)N[C@@H]1c1ccc(F)cc1 | 103% and 112% and 99.9% | 100% and 92.9% and 88.8% | 87.1% and 103% and 107% | 102% (2×) and 92.9% | 104% and 112% and 89% | 118% and 101% and 105% | > 100 nM | – | – | – | –
2 | COc1cc2cc(C(=O)CCC(=O)O)sc2cc1OC | – | – | – | – | 96.8% and 81.4% and 99% | 105% and 89.9% and 92.6% | > 10000 nM | 108% and 91.4% and 97.7% | 101% (2×) and 99.7% | 87.9% and 109% and 115% | 93.1% and 105% and 85.8%
3 | CC1COCCN1c1cc(C2(O)CC3CCC(C2)O3)c2cnn(-c3ccn[nH]3)c2n1 (configuration not stated) | – | – | – | – | 74.1% and 100% and 73.6% | 84.5% and 71.6% and 81% | 708 nM and 992 nM and 944 nM | 62.8% and 65.5% and 67.8% | 43.3% and 50.5% and 46.8% | 40.4% and 43.8% and 42.7% | 27.9% and 29.2% and 30.2%
4 | CC(C)n1c(=O)n(C)c2cnc3cc(F)c(-c4ccc(OCCCN5CCCCC5)nc4)cc3c21 | – | – | – | – | 127% and 94.5% and 93.5% | 74.1% and 94.9% and 97.8% | > 10000 nM | 107% and 111% and 96.5% | 100% and 92.8% and 103% | 89.6% and 91.6% and 94.1% | 70.6% and 64.5% and 76.9%
5 | O=C(Nc1ccc(O)c(NS(=O)(=O)c2ccc(F)cc2)c1)c1ccc(-c2ccccc2)cc1 | – | – | – | – | 119% and 92.8% and 88.2% | 112% and 97.5% and 96.2% | > 10000 nM | 102% and 96.6% and 99.1% | 123% and 103% and 118% | 153% and 112% and 122% | 114% and 96.1% and 113%
6 | Nc1ccn(C2OC(CO)C(O)C2(F)F)c(=O)n1 (configuration not stated) | – | – | – | – | 85.5% and 98.5% and 105% | 81.7% and 117% and 83.4% | > 10000 nM | 81.2% and 85.9% and 88.4% | 64.9% and 81.8% and 83.7% | 84.6% and 85.2% and 85.7% | 75.2% and 82.7% and 85.4%
